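Test compounds were applied to cells in 96-well plates for 48 hours at 5 doses. The concentration for 50% growth inhibition is given as GI50.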 Active and inactive are the calls of the source. Rule as the data show it: active = GI50 up to about 1.1 µM and inactive = higher.
Assays:
Test in all cases: NCI anticancer screen, dose series, 48 h
SW-620 = tested on: SW-620
OVCAR-3 = tested on: OVCAR-3
Malme-3M = tested on: Malme-3M
SF-295 = tested on: SF-295
SK-MEL-2 = tested on: SK-MEL-2
HOP-62 = tested on: HOP-62
NCI-H522 = tested on: NCI-H522
HT-29 = tested on: HT-29
COLO 205 = tested on: COLO 205
SK-OV-3 = tested on: SK-OV-3
NCI/ADR-RES = tested on: NCI/ADR-RES
MDA-MB-231 = tested on: MDA-MB-231
SF-539 = tested on: SF-539
TK-10 = tested on: TK-10
MDA-N = tested on: MDA-N
HCC 2998 = tested on: HCC 2998
UO-31 = tested on: UO-31
NCI-H460 = tested on: NCI-H460
A549 = tested on: A549
HL-60 = tested on: HL-60
DU-145 = tested on: DU-145
K562 = tested on: K562
M14 = tested on: M14
PC-3 = tested on: PC-3
SN12C = tested on: SN12C
UACC-62 = tested on: UACC-62
U-251 = tested on: U-251
T47D = tested on: T47D
OVCAR-5 = tested on: OVCAR-5
SK-MEL-28 = tested on: SK-MEL-28
NCI-H23 = tested on: NCI-H23
SNB-75 = tested on: SNB-75
BT-549 = tested on: BT-549
HCT-15 = tested on: HCT-15
NCI-H226 = tested on: NCI-H226
ACHN = tested on: ACHN
IGROV-1 = tested on: IGROV-1
HOP-92 = tested on: HOP-92
A498 = tested on: A498
EKVX = tested on: EKVX
RXF 393 = tested on: RXF 393
UACC-257 = tested on: UACC-257
OVCAR-4 = tested on: OVCAR-4
Hs-578T = tested on: Hs-578T
CCRF-CEM = tested on: CCRF-CEM
OVCAR-8 = tested on: OVCAR-8
KM12 = tested on: KM12
CAKI-1 = tested on: CAKI-1
MOLT-4 = tested on: MOLT-4
SR = tested on: SR
RPMI-8226 = tested on: RPMI-8226
MCF7 = tested on: MCF7
LOX IMVI = tested on: LOX IMVI
HCT-116 = tested on: HCT-116
SK-MEL-5 = tested on: SK-MEL-5
SF-268 = tested on: SF-268
MDA-MB-435 = tested on: MDA-MB-435
SNB-19 = tested on: SNB-19
786-0 = tested on: 786-0

Measured: GI50

CCC(=C/[C@H](C)C/C=C/C(C)=C/[C@@H](C)C(=O)[C@@H](C)[C@H](O)[C@@H](C)CC)/C=C/[C@H]1CC=CC(=O)O1 [CALLYSTATIN A]
< 0.0012 µM: HCT-15
active: SW-620 < 1.2 nM | OVCAR-3 < 1.2 nM | Malme-3M < 1.2 nM | SF-295 < 0.0012 µM | SK-MEL-2 < 1.2 nM | HOP-62 < 0.0012 µM | NCI-H522 < 1.2 nM | HT-29 < 1.2 nM | COLO 205 < 0.0012 µM | SK-OV-3 < 1.2 nM | NCI/ADR-RES < 1.2 nM | MDA-MB-231 < 1.2 nM | SF-539 < 1.2 nM | TK-10 < 0.0012 µM | MDA-N < 1.2 nM | HCC 2998 < 0.0012 µM | UO-31 < 1.2 nM | NCI-H460 < 1.2 nM | A549 < 0.0012 µM | HL-60 < 1.2 nM | DU-145 < 0.0012 µM | K562 < 1.2 nM | M14 < 1.2 nM | PC-3 < 1.2 nM | SN12C < 1.2 nM | UACC-62 < 1.2 nM | U-251 < 1.2 nM | T47D < 1.2 nM | OVCAR-5 < 0.0012 µM | SK-MEL-28 < 0.0012 µM | NCI-H23 < 1.2 nM | SNB-75 < 1.2 nM | BT-549 < 1.2 nM | NCI-H226 16.8 nM | ACHN < 0.0012 µM | IGROV-1 < 1.2 nM | HOP-92 329 nM | A498 < 0.0012 µM | EKVX < 0.0012 µM | RXF 393 < 1.2 nM | UACC-257 < 0.0012 µM | OVCAR-4 < 0.0012 µM | Hs-578T < 0.0012 µM | CCRF-CEM < 1.2 nM | OVCAR-8 < 1.2 nM | KM12 < 1.2 nM | CAKI-1 < 1.2 nM | MOLT-4 88.7 nM | SR < 1.2 nM | MCF7 < 1.2 nM | LOX IMVI < 1.2 nM | HCT-116 < 1.2 nM | SK-MEL-5 < 1.2 nM | SF-268 < 1.2 nM | MDA-MB-435 < 1.2 nM | SNB-19 < 1.2 nM | 786-0 < 1.2 nM
inactive: RPMI-8226 2.67 µM

N#CC(c1ccnc(Cl)n1)c1nc2ccccc2s1 (stereo not drawn)
3.44 µM: HCT-15
inactive: SW-620 4300 nM | OVCAR-3 5550 nM | Malme-3M 2700 nM | SF-295 8.49 µM | SK-MEL-2 3520 nM | HOP-62 18.7 µM | NCI-H522 1600 nM | HT-29 2880 nM | COLO 205 10.4 µM | SK-OV-3 3210 nM | NCI/ADR-RES 2670 nM | MDA-MB-231 2910 nM | SF-539 3880 nM | TK-10 7.33 µM | MDA-N 3380 nM | HCC 2998 25.4 µM | UO-31 4070 nM | NCI-H460 3610 nM | A549 8.59 µM | HL-60 1170 nM | DU-145 19.6 µM | K562 2000 nM | M14 3760 nM | PC-3 3780 nM | SN12C 2870 nM | UACC-62 3210 nM | U-251 3380 nM | T47D 4190 nM | OVCAR-5 9.53 µM | SK-MEL-28 10.8 µM | NCI-H23 2480 nM | SNB-75 2360 nM | BT-549 3290 nM | NCI-H226 3760 nM | ACHN 13.7 µM | IGROV-1 3650 nM | HOP-92 2770 nM | A498 15.8 µM | EKVX 20.2 µM | RXF 393 4440 nM | UACC-257 6.19 µM | OVCAR-4 6.9 µM | Hs-578T 7.74 µM | OVCAR-8 3780 nM | KM12 4370 nM | CAKI-1 3870 nM | MOLT-4 3550 nM | SR 3030 nM | RPMI-8226 3.54 µM | MCF7 3680 nM | LOX IMVI 3550 nM | HCT-116 2580 nM | SK-MEL-5 1330 nM | SF-268 4980 nM | MDA-MB-435 3920 nM | SNB-19 4350 nM | 786-0 3780 nM
active: CCRF-CEM 63 nM

Source: ChEMBL document CHEMBL1201862, “PubChem BioAssay data set” (2004)
